Test results reported in ChEMBL document CHEMBL1156829 (Proc Natl Acad Sci U S A, 2008).

Columns and labels:
Plasmodium falciparum [1] = test: NOVARTIS: Inhibition of Plasmodium falciparum W2 (drug-resistant) proliferation in erythrocyte-based infection assay; assay type: functional, organism-based; settings: Plasmodium falciparum, W2; read-out: EC50
[2] = NOVARTIS: Cytotoxicity against human hepatocellular carcinoma cell line (Huh7); assay type: toxicity, cell-based, Huh-7; settings: Huh7 cells (hepatocellular carcinoma cell line)
Plasmodium falciparum [3] = test: NOVARTIS: Inhibition of Plasmodium falciparum 3D7 (drug-susceptible) proliferation in erythrocyte-based infection assay; assay type: functional, organism-based; settings: Plasmodium falciparum, 3D7

Compound	EC50 (Plasmodium falciparum [1])	CC50 [2]	EC50 (Plasmodium falciparum [3])
CCCCNc1cc(C)nc(NCc2ccccc2)n1	1020 nM	> 10000 nM	944 nM
CC1(C)CC(=O)C2=C(C1)NC(=O)CC2c1ccc(C(C)(C)C)cc1 (centres undefined)	> 1010 nM	> 10000 nM	> 1250 nM
N#C/C(=C\c1cc2ccccc2nc1Cl)c1nc(-c2ccc(Cl)c(Cl)c2)cs1	> 1010 nM	> 10000 nM	> 1250 nM
COc1ccc(/C=C2\SC(=O)NC2=Nc2ccccc2)c(OC)c1	1010 nM	> 10000 nM	1100 nM
CCN1CCN(C2CCN(Cc3cc4ccc(F)cc4n(CCSc4ccccc4)c3=O)CC2)CC1	560 nM	5480 nM	715 nM
CCCCCCN(C(=O)c1ccc(C(C)(C)C)cc1)C(CC)c1nc2cc(Cl)ccc2c(=O)n1CC (centres undefined)	1010 nM	> 10000 nM	954 nM
CCC(O)CN(c1ccccc1)c1ccccc1 (centres undefined)	> 1020 nM	> 10000 nM	> 1250 nM
CCN1CCC(N2CCC(n3c(C4CCC4)nc4cc(F)ccc43)CC2)CC1	2170 nM	21500 nM	453 nM
COC(=O)C1=C(C)N/C(=C\c2cc(C)n(-c3cc(Cl)ccc3Cl)c2C)C1=O	1010 nM	> 10000 nM	1520 nM
C/C(=C\c1ccccc1)CN(C(=O)c1ccc(C(C)(C)C)cc1)C(C)C	535 nM	> 5250 nM	217 nM
O=C(C1CCN(c2cccc3c2C(=O)N(C2CC2)C3=O)CC1)N1CCC(O)(c2ccc(Cl)cc2)CC1	> 1020 nM	> 10000 nM	> 1250 nM
COc1ccc2oc(=O)c(C(=O)N(C)c3ccc(S(N)(=O)=O)cc3)cc2c1	> 1010 nM	> 10000 nM	> 1250 nM
CCCCN(C)C(=O)c1sc2ncn(CC(=O)N(CC)CC)c(=O)c2c1C	> 1010 nM	> 10000 nM	> 1250 nM
N#Cc1ccc(NC(=O)c2cc(Cl)ccc2O)cc1	1010 nM	> 10000 nM	1090 nM
Cc1nc(N2CCN(C)CC2)c2c(C)c(C(=O)NCCN(C)C)sc2n1	> 1000 nM	> 10000 nM	> 1600 nM
CN(CC(=O)NC(C)(C)C)S(=O)(=O)c1ccccc1	> 1000 nM	> 10000 nM	> 1250 nM
CCOc1ccc2nc3cc(NC(=O)c4ccc(C)cc4)ccc3c(N)c2c1	997 nM	> 10000 nM	> 1190 nM
CCCCCCN(C(=O)c1ccc(C(C)(C)C)cc1)C(CC)c1nc2ccccc2c(=O)n1-c1ccc(F)cc1 (centres undefined)	1020 nM	> 10000 nM	795 nM
CC12CN3CC(C)(CN(C1)C3c1ccccc1)C2=O (centres undefined)	> 10000 nM	> 100000 nM	> 11200 nM
O=C(COC(=O)c1c2c(nc3ccccc13)CCCCCCCCCC2)c1ccc(Cl)cc1	> 10000 nM	> 100000 nM	> 11200 nM
COc1ccc(CN(C)C(C)C)cc1OC1CCN(C(=O)C2CCC2)CC1	> 10000 nM	> 100000 nM	> 11200 nM
CN(CCCNc1nc2ccccc2c2nc(-c3cccnc3)nn12)Cc1ccccc1	> 996 nM	> 10000 nM	> 771 nM
O=C(Oc1ccc(N2C(=O)c3ccc([N+](=O)[O-])cc3C2=O)cc1)c1ccco1	> 10000 nM	> 100000 nM	> 10000 nM
Cc1[nH]c(=O)[nH]c(=O)c1S(=O)(=O)Nc1ccc2oc(-c3ccncc3)nc2c1	> 10000 nM	> 100000 nM	> 10000 nM
Cc1c(Cl)cccc1NC(=S)N(CCCN(C)c1ccccc1)Cc1cccn1Cc1ccc(Cl)cc1	> 10000 nM	> 100000 nM	> 7300 nM
CCCc1ccc(OCCNC(=O)CCNC(=O)Nc2cccc(Cl)c2)cc1	> 999 nM	> 10000 nM	> 1380 nM
CC(C)(C)c1ccc(Oc2ccc(N3C(=O)C4CC=CCC4C3=O)cc2)cc1 (centres undefined)	> 1020 nM	> 10000 nM	> 1250 nM

Compound	EC50 (Plasmodium falciparum [1])	CC50 [2]	EC50 (Plasmodium falciparum [3])
CCCNC(=O)CCCCCSc1nc2ccccc2c(=O)n1-c1ccc(F)cc1	> 1180 nM	> 11500 nM	780 nM
CS(=O)(=O)N(CCc1ccccc1)CC(O)CN1CCC(CNC(=O)NC(c2ccccc2)c2ccccc2)CC1 (centres undefined)	1020 nM	> 10000 nM	> 1530 nM
CCCCOc1ccc(C(=O)Nc2c3c(nn2-c2ccc(C)cc2C)CSC3)cc1	1020 nM	> 10000 nM	> 1520 nM
CCN(CC)C(=O)c1ccc2c(=O)n(Cc3cccc(Br)c3)c(=S)[nH]c2c1	1020 nM	> 10000 nM	> 1250 nM
C=C(C)C(=O)OCCc1ccc(O)c(-n2nc3ccccc3n2)c1	1010 nM	> 10000 nM	> 1250 nM
CC(=O)O[C@]1(C(C)=O)CCC2C3C=CC4=CC(=O)CC[C@]4(C)C3CC[C@@]21C (some centres undefined)	1010 nM	> 10000 nM	> 1210 nM
CCCCNC(=O)c1ccc2c(c1)N=C(c1cccnc1)N(CCN1CCOCC1)C2	> 1060 nM	> 10400 nM	> 1250 nM
CC(C)CC1C(c2ccc(Cl)cc2)C(C(=O)c2ccccc2)C2(C(=O)Nc3ccc(Br)cc32)N1C(=O)NCc1ccccc1 (centres undefined)	> 1020 nM	> 10000 nM	775 nM
O=C(NN1CCOCC1)c1ccc(Br)cc1	> 997 nM	> 10000 nM	> 1510 nM
c1cc(NCc2ccc3c(c2)OCO3)n2ncc(-c3ccoc3)c2n1	> 1020 nM	> 10000 nM	> 1250 nM
CC1(C)Cc2c(sc(NC(=O)CCl)c2C#N)CO1	2080 nM	20500 nM	2040 nM
Cc1ccc(-n2c(SCc3cccc(C)c3)nnc2C(Cc2ccccc2)NC(=O)NC(C)(C)C)cc1 (centres undefined)	1010 nM	> 10000 nM	735 nM
CC1C/C(=C/c2ccncc2)C(=O)/C(=C/c2ccncc2)C1 (centres undefined)	990 nM	> 10000 nM	1210 nM
O=C(CN1CCN(C(=O)c2ccco2)CC1)Nc1cc(C(F)(F)F)ccc1Cl	> 10000 nM	> 100000 nM	4040 nM
CCC(CC)C(=O)N1CCOc2c(cc(-c3csc4ccccc34)cc2OCc2ccccn2)C1	1010 nM	> 10000 nM	1110 nM
O=C(CC(=NNc1nc(NN=C(CC(=O)C(F)(F)F)C(F)(F)F)nc(N(c2ccccc2)c2ccccc2)n1)C(F)(F)F)C(F)(F)F	1010 nM	> 10000 nM	670 nM
COc1ccc(-c2csc3ncn(N)c(=O)c23)cc1	> 1010 nM	> 10000 nM	> 1250 nM
ClC12CC3CC(C1)CC(n1nnc4ccccc41)(C3)C2	> 1020 nM	> 10000 nM	> 1250 nM
CCCN(CC(=O)Nc1cc(C(C)(C)C)nn1-c1cccc(C)c1)C(=O)c1cccc([N+](=O)[O-])c1	1010 nM	> 10000 nM	> 1630 nM
O=C1c2cccc3cccc(c23)C(=O)N1c1ccc(-c2c3ccccc3c(-c3ccc(N4C(=O)c5cccc6cccc(c56)C4=O)cc3)c3ccccc23)cc1	1000 nM	> 10000 nM	1050 nM
COc1ccc2[nH]c3c(=O)n(C)cnc3c2c1	1000 nM	> 10000 nM	> 1410 nM
CN1C(=O)NC(c2cccnc2)C(C(=O)c2cccs2)C1(O)C(F)(F)F (centres undefined)	> 10000 nM	> 100000 nM	> 11200 nM
COc1cccc(C2CC3(CC(C)(C)NC(=S)N3)Oc3cc(OC(C)=O)c(Cl)cc32)c1 (centres undefined)	> 995 nM	> 10000 nM	> 1300 nM
CC(=O)Oc1ccc(C(=O)C(C(C)=O)c2ccccc2)c(OC(C)=O)c1 (centres undefined)	> 1020 nM	> 10000 nM	> 1390 nM
CCCCCN(CC(=O)Nc1cc(C(C)(C)C)nn1-c1ccc(Cl)c(Cl)c1)C(=O)c1cccc(OC)c1	992 nM	> 10000 nM	597 nM
Cc1ccc(-c2cc(C)[n+](C)c(-c3ccc(C)cc3)c2)cc1	763 nM	7520 nM	313 nM
